Reference: PMC3157398 (PLoS ONE, 2011)

Tests used:
ATP synthase subunit c = target: T1, ATP synthase subunit c (Mycobacterium tuberculosis, UniProt P9WPS1); assay type: binding
T1 construct: made in house

ATP synthase holoenzyme = ATP synthase holoenzyme (Bacillus sp., UniProt P00845+P09218); assay type: binding, Bacillus PS3
[1] = test system: ATP synthase with resistance mutation D32V in subunit c; assay type: biochemical, Mycobacterium smegmatis
[2] = target: mycobacterial ATP synthase (Mycolicibacterium smegmatis, UniProt A0R205+A0R206)

T1 sequence (P9WPS1 whole entry): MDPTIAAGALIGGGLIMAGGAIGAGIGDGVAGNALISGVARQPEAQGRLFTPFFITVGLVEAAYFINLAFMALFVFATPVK

COc1nc2ccc(N)cc2cc1[C@@H](c1ccccc1)[C@@](O)(CCN(C)C)c1cccc2ccccc12 [TMC207 amino-analog]
dissociation constant of mono-exponential fit (ATP synthase subunit c): 0.002295 | dissociation constant of mono-exponential fit (ATP synthase holoenzyme): 0.000103

COc1nc2ccc(Br)cc2cc1[C@@H](c1ccccc1)[C@@](O)(CCN(C)C)c1cccc2ccccc12 [TMC207]
inhibition of ATP synthesis [1]: no inhibition

CC(C)(C)c1cc(C=C(C#N)C#N)cc(C(C)(C)C)c1O [SF6847]
residual ATP synthesis activity [2]: < 10%
